Measured values: article PMC7570665 (2020)

What was measured:
[1] = system: T10-7.t5 (XNA, aptamer, all-TNA (alpha-L-threose nucleic acid, 3'-2'); 7-deaza-7-phenyl-guanine in place of every guanine) CTTTTAAGAACCGGACGAACTAGAATATTATATTTT; assay: competitive equilibrium filtration; conditions: 5 mM MgCl2, 300 mM NaCl; 20 mM Tris-HCl pH 7.6; displaces γ-32P-ATP; 4 °C in methods, 24 °C in legend; highest concentration not stated
[2] = system: T10-7.t5 (XNA, aptamer, all-TNA (alpha-L-threose nucleic acid, 3'-2'); 7-deaza-7-phenyl-guanine in place of every guanine) CTTTTAAGAACCGGACGAACTAGAATATTATATTTT; assay: equilibrium filtration, γ-32P-ATP, Hill fit; conditions: 5 mM MgCl2, 300 mM NaCl; 20 mM Tris-HCl pH 7.6; 4 °C in methods, 24 °C in legend; apparent

| Kd [1] | KD [2] | SMILES |
| --- | --- | --- |
| > 2000 µM |  | Nc1ccn([C@@H]2O[C@H](COP(=O)(O)OP(=O)(O)OP(=O)(O)O)[C@@H](O)[C@H]2O)c(=O)n1 |
| > 2000 µM |  | Nc1nc2c(ncn2[C@@H]2O[C@H](COP(=O)(O)OP(=O)(O)OP(=O)(O)O)[C@@H](O)[C@H]2O)c(=O)[nH]1 |
|  | 22 ± 5 µM | Nc1ncnc2c1ncn2[C@@H]1O[C@H](COP(=O)(O)OP(=O)(O)OP(=O)(O)O)[C@@H](O)[C@H]1O |
| > 2000 µM |  | O=c1ccn([C@@H]2O[C@H](COP(=O)(O)OP(=O)(O)OP(=O)(O)O)[C@@H](O)[C@H]2O)c(=O)[nH]1 |
